The values that follow come from ChEMBL document CHEMBL1129871, “INVESTIGATION OF BIOISOSTERS OF THE GROWTH HORMONE SECRETAGOGUE L-692,429” (Bioorg Med Chem Lett, 1997).

Non-standard residues stand in square brackets, D forms with d. Residues, ends and D or L forms follow the SMILES beside them.

The species named for one test is Rattus norvegicus. The test is described as follows: The compound was tested in vitro for the growth hormone release in rat pituitary cell assays. It counts as functional, Pituitary gland cell. The note with it: Rattus norvegicus, Pituitary gland cell.
The compound `Cc1noc(-c2ccccc2-c2ccc(CN3C(=O)[C@H](NC(=O)CC(C)(C)N)CCc4ccccc43)cc2)n1` returned an EC50 of 1050 nM.
`Cn1ncnc1-c1ccccc1-c1ccc(CN2C(=O)[C@H](NC(=O)CC(C)(C)N)CCc3ccccc32)cc1` displayed an EC50 of 265 nM.
On to `CC(C)(N)CC(=O)N[C@@H]1CCc2ccccc2N(Cc2ccc(-c3sccc3-c3nn[nH]n3)cc2)C1=O`, for which the EC50 is 140 nM.
With `CC(C)(N)CC(=O)N[C@@H]1CCc2ccccc2N(Cc2ccc(-c3cscc3-c3nn[nH]n3)cc2)C1=O`, the EC50 was determined as 150 nM.
`CC(C)(N)CC(=O)N[C@@H]1CCc2ccccc2N(Cc2ccc(-n3cccc3-c3nn[nH]n3)cc2)C1=O` showed an EC50 of 275 nM.
As to `CC(C)(N)CC(=O)N[C@@H]1CCc2ccccc2N(Cc2ccc(-c3ccccc3-c3nc[nH]n3)cc2)C1=O`, the EC50 was 90 nM.
For `CC(C)(N)CC(=O)N[C@@H]1CCc2ccccc2N(Cc2ccc(-c3cccnc3-c3nn[nH]n3)cc2)C1=O`, the EC50 stood at 2350 nM.
Compound `COc1nsnc1-c1ccccc1-c1ccc(CN2C(=O)[C@H](NC(=O)CC(C)(C)N)CCc3ccccc32)cc1` showed an EC50 of 1800 nM.
`CC(C)(N)CC(=O)N[C@@H]1CCc2ccccc2N(Cc2ccc(-c3ccccc3-c3ncno3)cc2)C1=O` came in with an EC50 of 30 nM.
The compound `Cc1nnc(-c2cscc2-c2ccc(CN3C(=O)[C@H](NC(=O)CC(C)(C)N)CCc4ccccc43)cc2)o1` showed an EC50 of 125 nM.
On the same count and under the same terms, then `CC(C)(N)CC(=O)N[C@@H]1CCc2ccccc2N(Cc2ccc(-c3ccccc3C(=O)O)cc2)C1=O`, with 2500 nM.
`C[C@H](NC(=O)[C@@H](Cc1c[nH]c2ccccc12)NC(=O)[C@@H](N)Cc1c[nH]cn1)C(=O)N[C@@H](Cc1c[nH]c2ccccc12)C(=O)N[C@H](Cc1ccccc1)C(=O)N[C@@H](CCCCN)C(N)=O` (H-H[dW]AW[dF]K-NH2) had an EC50 of 2 nM.

Staying with this test, now noted: pituitary gland cell.
`CC(C)(N)CC(=O)N[C@@H]1CCc2ccccc2N(Cc2ccc(-c3ccccc3-c3nn[nH]n3)cc2)C1=O` came in with an EC50 of 125 nM.

What is called EC50 is the concentration at which the effect is half-maximal. A higher EC50 goes with weaker potency.
